Assay results from paper PMC3759966 (The Biochemical journal, 2009).

Tests used:
[1] = test system: ERM protein phosphorylation (site equivalent to Thr567 of ezrin); assay: ERM protein phosphorylation in HEK-293 cells; type: cell-based, human; details: 10 μM, 1 h; in the presence or absence of G14V-Rho
[2] = test system: phosphorylation of MYPT at Thr850; assay: MYPT Thr850 phosphorylation in HEK-293 cells; type: cell-based, human; details: 10 μM, 1 h; HEK-293 cells with or without G14V-Rho
[3] = test system: panel of 85 protein kinases; assay: Selectivity over kinase panel; type: biochemical; details: 1 μM; out of the 85 kinases profiled
[4] = molecular target: T1, GST–LRRK2[G2019S]-(1326–2527) (Homo sapiens, UniProt Q5S007, G2019S); assay: Peptide kinase assay with inhibitors; type: biochemical; details: for inhibition of LRRK2[G2019S] (in words): 100 μM ATP
T1 sequence (Q5S007 1326-2527 G2019S): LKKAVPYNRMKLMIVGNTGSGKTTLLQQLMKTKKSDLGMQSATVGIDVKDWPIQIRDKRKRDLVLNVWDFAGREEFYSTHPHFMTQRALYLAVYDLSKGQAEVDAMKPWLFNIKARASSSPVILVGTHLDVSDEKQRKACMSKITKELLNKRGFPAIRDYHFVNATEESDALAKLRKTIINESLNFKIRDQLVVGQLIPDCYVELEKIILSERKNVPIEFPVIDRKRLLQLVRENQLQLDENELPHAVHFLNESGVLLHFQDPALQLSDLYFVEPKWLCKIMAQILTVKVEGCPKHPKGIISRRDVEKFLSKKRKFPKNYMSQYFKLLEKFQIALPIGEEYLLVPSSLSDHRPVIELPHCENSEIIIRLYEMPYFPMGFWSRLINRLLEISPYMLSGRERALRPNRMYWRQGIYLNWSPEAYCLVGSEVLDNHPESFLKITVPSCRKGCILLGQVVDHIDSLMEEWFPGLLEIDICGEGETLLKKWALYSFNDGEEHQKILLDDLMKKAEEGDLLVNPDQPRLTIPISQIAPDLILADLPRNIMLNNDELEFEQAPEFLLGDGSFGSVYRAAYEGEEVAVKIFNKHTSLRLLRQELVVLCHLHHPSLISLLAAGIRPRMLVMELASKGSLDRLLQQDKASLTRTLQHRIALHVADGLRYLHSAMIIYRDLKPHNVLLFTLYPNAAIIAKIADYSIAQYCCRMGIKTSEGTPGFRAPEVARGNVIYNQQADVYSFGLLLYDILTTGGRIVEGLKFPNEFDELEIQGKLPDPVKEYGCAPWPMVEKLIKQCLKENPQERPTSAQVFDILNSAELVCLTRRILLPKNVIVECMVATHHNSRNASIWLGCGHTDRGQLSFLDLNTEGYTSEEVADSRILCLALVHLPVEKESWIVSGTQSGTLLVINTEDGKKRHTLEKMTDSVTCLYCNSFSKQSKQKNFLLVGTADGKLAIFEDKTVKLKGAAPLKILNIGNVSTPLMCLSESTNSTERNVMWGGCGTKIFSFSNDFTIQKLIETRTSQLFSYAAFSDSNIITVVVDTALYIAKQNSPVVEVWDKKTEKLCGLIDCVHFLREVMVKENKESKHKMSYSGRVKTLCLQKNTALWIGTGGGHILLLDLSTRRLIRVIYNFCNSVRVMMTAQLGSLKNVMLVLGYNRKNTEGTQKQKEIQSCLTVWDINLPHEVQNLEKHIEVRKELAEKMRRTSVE

[5] = molecular target: endogenous LRRK2 from Swiss-3T3 cells (Mus musculus, UniProt Q5S006); assay: Kinase assay of immunoprecipitated endogenous LRRK2 with Nictide; type: biochemical; details: Swiss-3T3 immunoprecipitates, Nictide substrate
Sequence of endogenous LRRK2 from Swiss-3T3 cells (Q5S006 whole entry): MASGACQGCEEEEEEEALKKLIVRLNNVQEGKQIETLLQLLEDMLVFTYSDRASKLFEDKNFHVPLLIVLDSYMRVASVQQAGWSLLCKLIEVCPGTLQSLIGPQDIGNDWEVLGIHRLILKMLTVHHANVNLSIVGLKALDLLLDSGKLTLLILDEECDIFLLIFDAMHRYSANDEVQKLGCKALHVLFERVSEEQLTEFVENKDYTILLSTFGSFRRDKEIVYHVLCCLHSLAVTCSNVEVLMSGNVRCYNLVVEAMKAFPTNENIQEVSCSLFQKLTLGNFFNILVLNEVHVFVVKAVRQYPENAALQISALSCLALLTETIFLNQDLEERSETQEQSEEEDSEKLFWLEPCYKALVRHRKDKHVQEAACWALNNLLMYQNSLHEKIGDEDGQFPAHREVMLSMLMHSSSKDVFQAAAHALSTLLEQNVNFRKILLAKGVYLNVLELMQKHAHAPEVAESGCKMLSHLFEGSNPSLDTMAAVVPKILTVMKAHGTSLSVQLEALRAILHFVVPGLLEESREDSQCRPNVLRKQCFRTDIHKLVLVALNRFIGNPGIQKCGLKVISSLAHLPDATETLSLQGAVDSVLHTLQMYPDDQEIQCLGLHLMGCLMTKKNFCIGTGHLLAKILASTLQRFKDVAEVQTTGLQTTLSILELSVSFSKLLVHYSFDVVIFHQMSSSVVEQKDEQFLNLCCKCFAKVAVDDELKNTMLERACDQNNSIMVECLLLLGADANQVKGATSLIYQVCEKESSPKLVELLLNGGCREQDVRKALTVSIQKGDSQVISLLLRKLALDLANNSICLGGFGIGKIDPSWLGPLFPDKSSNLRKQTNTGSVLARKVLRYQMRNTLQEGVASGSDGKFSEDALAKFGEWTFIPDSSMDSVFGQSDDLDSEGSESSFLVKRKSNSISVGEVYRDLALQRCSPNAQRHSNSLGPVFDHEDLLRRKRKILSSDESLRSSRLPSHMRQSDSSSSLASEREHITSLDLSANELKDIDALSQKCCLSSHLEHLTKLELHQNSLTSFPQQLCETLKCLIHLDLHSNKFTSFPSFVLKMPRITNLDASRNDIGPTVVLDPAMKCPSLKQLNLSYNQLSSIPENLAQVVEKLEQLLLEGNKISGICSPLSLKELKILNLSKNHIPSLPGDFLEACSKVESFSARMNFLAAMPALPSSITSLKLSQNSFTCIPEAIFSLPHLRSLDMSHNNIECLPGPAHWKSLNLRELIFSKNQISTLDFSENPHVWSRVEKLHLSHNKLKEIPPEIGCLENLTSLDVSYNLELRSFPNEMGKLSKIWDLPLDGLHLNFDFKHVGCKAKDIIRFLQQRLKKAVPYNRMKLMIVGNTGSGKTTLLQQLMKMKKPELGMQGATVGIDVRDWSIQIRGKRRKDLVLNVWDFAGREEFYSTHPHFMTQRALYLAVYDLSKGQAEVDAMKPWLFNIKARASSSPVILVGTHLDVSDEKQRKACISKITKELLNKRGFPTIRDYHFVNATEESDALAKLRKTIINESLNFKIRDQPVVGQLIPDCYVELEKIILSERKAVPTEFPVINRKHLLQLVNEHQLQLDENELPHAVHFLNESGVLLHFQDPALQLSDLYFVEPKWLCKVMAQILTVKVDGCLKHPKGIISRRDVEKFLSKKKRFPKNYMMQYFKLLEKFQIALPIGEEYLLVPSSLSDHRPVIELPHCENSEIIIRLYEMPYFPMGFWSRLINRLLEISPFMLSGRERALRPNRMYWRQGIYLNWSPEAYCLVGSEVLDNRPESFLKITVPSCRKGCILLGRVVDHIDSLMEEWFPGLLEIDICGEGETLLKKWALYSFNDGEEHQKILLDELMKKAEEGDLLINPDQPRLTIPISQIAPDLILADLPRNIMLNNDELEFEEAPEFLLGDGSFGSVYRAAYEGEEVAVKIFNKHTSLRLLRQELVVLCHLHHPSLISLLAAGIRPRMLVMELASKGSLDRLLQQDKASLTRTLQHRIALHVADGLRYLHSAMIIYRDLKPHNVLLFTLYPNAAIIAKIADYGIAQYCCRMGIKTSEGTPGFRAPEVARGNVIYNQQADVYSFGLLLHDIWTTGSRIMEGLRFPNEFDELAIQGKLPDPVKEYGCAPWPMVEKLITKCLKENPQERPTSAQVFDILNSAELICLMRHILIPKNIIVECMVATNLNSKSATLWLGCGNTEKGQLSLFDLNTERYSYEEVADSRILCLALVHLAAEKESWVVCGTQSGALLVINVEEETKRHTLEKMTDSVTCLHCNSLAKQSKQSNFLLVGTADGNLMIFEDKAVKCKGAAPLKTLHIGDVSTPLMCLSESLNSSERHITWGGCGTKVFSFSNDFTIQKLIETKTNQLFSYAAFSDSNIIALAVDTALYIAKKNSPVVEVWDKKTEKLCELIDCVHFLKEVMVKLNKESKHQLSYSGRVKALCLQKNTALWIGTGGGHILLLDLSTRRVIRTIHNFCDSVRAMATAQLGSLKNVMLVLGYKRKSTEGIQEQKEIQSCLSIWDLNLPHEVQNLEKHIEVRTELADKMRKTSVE

With `CCn1c(-c2nonc2N)nc2cnc(Oc3cccc(NC(=O)c4ccc(OCCN5CCOCC5)cc4)c3)cc21` [GSK269962A] the “effect on ERM protein phosphorylation” value [1] was “did not inhibit”, the “effect on phosphorylation of MYPT at Thr850” value (from here on “effect on phosphorylation”) [2] was “ablated phosphorylation” and the “number of kinases significantly inhibited” value [3] was “seven”.
For `CC1=C(C(=O)Nc2cc3cn[nH]c3cc2F)C(c2ccc(C(F)(F)F)cc2)CC(=O)N1` (stereo not shown) [GSK429286A], the “effect on ERM protein phosphorylation” value [1] was “did not inhibit”, the “effect on phosphorylation” value [2] was “ablated phosphorylation” and the “inhibition of LRRK2 at high dose (in words)” value ([4]; doses as high as 30 μM) was “does not significantly inhibit”.
For `O=S(=O)(NCCNCC=Cc1ccc(Br)cc1)c1cccc2cnccc12` [H-89, N-[2-(p-bromocinnamylamino)ethyl]-5-isoquinolinesulfonamide], the “inhibition of LRRK2[G2019S] (in words)” value [4] was “weakly”.
In the case of `Cc1cncc2cccc(S(=O)(=O)N3CCCNC[C@@H]3C)c12` [H-1152, (S)-(+)-2-methyl-1-[(4-methyl-5-isoquinoline)sulfonyl]-homopiperazine], the “effect on ERM protein phosphorylation” value [1] is reported as “did not inhibit”, the “effect on phosphorylation” value [2] is reported as “ablated phosphorylation” and the “effect on protein kinase activity in LRRK2 immunoprecipitate” value [5] is reported as “suppressed”.
With `O=S(=O)(c1cccc2cnccc12)N1CCCNCC1` [HA-1077, fasudil] the “inhibition of LRRK2[G2019S] (in words)” value [4] was “weakly”.
In the case of `C[C@@H](N)[C@H]1CC[C@H](C(=O)Nc2ccncc2)CC1` [Y-27632], the “effect on ERM protein phosphorylation” value [1] is reported as “did not inhibit” and the “effect on phosphorylation” value [2] is reported as “ablated phosphorylation”.
